Data published in ChEMBL document CHEMBL1201862, “PubChem BioAssay data set” (2004).
Calls of active or inactive are those of the source.

How the values were obtained:
[1] = ADAM10 inhibitors, peptide cleavage, dose response, biochemical, QFRET (AID 743254);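 also: ADAM10 enzyme with the DM2 quenched FRET peptide as substrate; EDANS fluorescence gain as the protease cuts the substrate; inhibitor potency against ADAM10 proteolytic activity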
[2] = growth suppression of PTEN-null colon cells, dose response, cell-based, HCT116 PTEN knockout (AID 1047); type: functional;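 also: HCT116 colon tumor cells with PTEN knocked out; cells exposed to compound for 60 hours before readout; potency for loss of cell viability measured by luminescence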
[3] = growth suppression of beta-catenin-knockout colon cells, dose response, cell-based, HCT116, human colon tumor (AID 1045); type: functional;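 also: HCT116 colon tumor cells with beta catenin knocked out; cells exposed to compound for 60 hours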
[4] = biological target: Melanocortin receptor 4 (Homo sapiens, UniProt P32245); type: functional, cell-based;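 also: Cell-based assay with luminescence read-out, confirmatory dose-response testing for agonist activity of biased ligands at MC4R; human U2OS cells with tagged receptor and beta-arrestin; potency of agonists that increase receptor coupling to beta-arrestin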
Melanocortin receptor 4, sequence (P32245 whole entry, the tested form may be a part): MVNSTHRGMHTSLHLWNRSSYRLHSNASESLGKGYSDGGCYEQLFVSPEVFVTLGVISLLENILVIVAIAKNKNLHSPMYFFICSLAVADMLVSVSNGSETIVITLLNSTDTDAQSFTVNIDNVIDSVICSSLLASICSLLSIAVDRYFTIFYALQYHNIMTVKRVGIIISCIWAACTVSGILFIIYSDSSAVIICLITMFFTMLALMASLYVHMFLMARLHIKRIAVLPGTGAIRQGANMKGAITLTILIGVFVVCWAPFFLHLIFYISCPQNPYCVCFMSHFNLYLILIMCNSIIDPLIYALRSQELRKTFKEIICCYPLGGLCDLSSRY

[5] = inhibitors of HIV Env-driven cell fusion, dose response, cherry-pick (AID 652057); type: functional, cell-based
[6] = ZM109 Env clade C HIV-1 fusion inhibitors, dose response, HeLa effector, CEM target cells, luciferase, cherry-pick (AID 652058); type: functional, cell-based
[7] = off-target signal loss in HeLa-CEM21 co-culture – HeLa F-luc CTL cells, cherry-picked, counter-screen for HIV-1 Env fusion inhibitor project, dose response (AID 652040); type: functional, cell-based;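 also: potency for signal decrease marking cytotoxic or nonspecific inhibition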
[8] = inhibitors of clade B AD8 Env fusion, dose response, cell-based, cherry-pick (AID 652062); type: functional;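 also: luciferase signal from cell-cell fusion driven by HIV-1 clade B AD8 Env; potency is for inhibitors of fusion seen as a drop in luminescence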
[9] = biological target: T1, Calpain-2 catalytic subunit (Sus scrofa, UniProt P43367); assay: pig calpain II inhibitor potency, dose response, biochemical, fluorogenic peptide substrate (AID 1420); type: functional
T1 sequence (P43367 whole entry): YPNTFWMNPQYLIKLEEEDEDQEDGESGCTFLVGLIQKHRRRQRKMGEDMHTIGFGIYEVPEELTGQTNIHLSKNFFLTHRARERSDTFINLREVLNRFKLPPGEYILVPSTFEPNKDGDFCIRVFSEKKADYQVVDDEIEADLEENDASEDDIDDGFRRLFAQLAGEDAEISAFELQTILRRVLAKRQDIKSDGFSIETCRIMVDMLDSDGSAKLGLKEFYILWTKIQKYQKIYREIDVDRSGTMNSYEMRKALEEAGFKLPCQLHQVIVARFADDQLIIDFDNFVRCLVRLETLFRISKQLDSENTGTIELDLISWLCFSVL

[10] = biological target: T2, Low molecular weight phosphotyrosine protein phosphatase (Homo sapiens, UniProt P24666); type: functional; settings: read-out: IC50_Mean
T2 sequence (P24666 whole entry): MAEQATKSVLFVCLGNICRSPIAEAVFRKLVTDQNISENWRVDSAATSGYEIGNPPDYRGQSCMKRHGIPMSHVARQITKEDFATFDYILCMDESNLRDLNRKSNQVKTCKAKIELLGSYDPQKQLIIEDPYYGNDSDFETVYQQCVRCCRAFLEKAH

[11] = biological target: T2, Low molecular weight phosphotyrosine protein phosphatase; type: functional; settings: read-out: IC50_Mean; remark: listed apart in the source
[12] = biological target: T3, DNA repair and recombination protein RAD54-like (Homo sapiens, UniProt Q92698); assay: inhibitors of human RAD54 branch migration, confirmation, biochemical, fluorescence, cherry-picked samples, dose series (AID 651657); type: functional
T3 sequence (Q92698 whole entry): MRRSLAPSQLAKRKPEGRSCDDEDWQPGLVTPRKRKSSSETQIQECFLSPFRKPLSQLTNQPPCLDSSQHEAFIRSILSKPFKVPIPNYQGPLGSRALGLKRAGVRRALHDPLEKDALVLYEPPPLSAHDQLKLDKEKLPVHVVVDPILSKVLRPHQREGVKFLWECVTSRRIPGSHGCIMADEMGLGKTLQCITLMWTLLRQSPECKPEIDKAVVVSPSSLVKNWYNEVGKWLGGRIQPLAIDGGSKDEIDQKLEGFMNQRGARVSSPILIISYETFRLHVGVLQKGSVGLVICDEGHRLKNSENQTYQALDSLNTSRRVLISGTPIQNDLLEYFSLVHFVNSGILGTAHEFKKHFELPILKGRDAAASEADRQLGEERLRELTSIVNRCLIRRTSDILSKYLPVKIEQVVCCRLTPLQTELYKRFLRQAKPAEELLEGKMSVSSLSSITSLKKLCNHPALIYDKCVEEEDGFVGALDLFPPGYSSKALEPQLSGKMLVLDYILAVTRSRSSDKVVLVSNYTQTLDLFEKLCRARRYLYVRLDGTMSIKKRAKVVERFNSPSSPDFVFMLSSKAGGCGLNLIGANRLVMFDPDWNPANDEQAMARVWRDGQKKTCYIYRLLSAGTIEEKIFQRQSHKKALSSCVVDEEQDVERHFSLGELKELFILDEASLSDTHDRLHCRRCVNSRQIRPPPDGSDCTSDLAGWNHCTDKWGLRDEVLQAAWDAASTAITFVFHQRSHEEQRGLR

[13] = biological target: T4, Protein skinhead-1 (Caenorhabditis elegans, UniProt P34707); type: functional
T4 sequence (P34707 whole entry): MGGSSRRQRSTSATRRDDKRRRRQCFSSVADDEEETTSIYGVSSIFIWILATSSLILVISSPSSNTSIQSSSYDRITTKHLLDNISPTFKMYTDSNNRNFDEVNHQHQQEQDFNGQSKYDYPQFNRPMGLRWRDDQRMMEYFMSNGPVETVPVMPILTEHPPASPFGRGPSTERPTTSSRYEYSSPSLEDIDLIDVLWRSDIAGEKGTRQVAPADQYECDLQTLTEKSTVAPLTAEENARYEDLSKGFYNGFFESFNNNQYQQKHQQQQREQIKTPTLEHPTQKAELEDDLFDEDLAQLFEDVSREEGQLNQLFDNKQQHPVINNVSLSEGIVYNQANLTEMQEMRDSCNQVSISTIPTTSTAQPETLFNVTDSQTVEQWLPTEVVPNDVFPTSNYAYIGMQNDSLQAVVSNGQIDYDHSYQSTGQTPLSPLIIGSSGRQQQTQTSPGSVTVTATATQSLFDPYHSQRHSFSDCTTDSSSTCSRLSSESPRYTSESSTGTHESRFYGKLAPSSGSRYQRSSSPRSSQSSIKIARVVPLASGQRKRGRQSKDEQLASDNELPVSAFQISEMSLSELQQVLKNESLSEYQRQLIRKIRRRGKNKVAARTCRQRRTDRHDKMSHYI

[14] = A549 cell cytotoxicity, dose response, cytotoxicity control, plate reader, cherry-pick, antagonist series (AID 743412); type: functional, cell-based
[15] = LGR2 antagonists, dose response, cell-based, HEK293, CRE-luciferase reporter, cherry pick, set 2 (AID 743343); type: functional;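 also: transfected cells were stimulated with diluted bursicon conditioned medium after compound addition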
[16] = MC4R antagonists, dose response, counter-screen for LGR2 antagonist project, cell-based, plate reader, cherry pick (AID 743444); type: functional;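 also: transfected HEK 293 cells stimulated with alpha-MSH peptide; potency of inhibitors of the alpha-MSH evoked signal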
[17] = HEK293 cell cytotoxicity, dose response, cytotoxicity control, plate reader, cherry-picked samples (AID 743446); type: functional, cell-based
[18] = biological target: Disintegrin and metalloproteinase domain-containing protein 17 (Homo sapiens, UniProt P78536); assay: ADAM17 protease inhibitors, dose response, counter-screen for ADAM10 exosite inhibitor project, biochemical, quenched FRET substrate (AID 743253)
Disintegrin and metalloproteinase domain-containing protein 17, sequence (P78536 whole entry, the tested form may be a part): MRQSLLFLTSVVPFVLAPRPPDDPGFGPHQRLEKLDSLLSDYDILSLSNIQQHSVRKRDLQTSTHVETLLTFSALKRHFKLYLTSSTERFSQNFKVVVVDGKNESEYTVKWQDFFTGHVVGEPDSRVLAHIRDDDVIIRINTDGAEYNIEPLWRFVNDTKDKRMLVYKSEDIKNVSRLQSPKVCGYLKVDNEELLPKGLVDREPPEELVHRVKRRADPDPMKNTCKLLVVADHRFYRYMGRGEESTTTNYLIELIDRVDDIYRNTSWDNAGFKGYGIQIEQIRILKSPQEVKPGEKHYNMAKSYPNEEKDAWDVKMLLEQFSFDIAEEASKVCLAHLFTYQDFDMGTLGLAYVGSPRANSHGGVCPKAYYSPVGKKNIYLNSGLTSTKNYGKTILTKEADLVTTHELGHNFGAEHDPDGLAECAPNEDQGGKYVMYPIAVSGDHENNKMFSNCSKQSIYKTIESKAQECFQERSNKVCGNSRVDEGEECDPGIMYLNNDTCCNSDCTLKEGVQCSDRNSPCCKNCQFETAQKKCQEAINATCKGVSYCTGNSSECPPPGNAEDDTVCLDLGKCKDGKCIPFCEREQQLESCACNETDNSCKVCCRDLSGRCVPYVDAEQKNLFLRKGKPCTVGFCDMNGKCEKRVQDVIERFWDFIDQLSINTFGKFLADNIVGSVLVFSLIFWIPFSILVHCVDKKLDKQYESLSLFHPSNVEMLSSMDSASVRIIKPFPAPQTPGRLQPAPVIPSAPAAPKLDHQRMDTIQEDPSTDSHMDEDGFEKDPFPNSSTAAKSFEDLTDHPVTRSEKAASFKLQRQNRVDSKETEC

[19] = Luminescence Cell-Based Dose Retest to Confirm Inhibitors of Cancer Stem Cells. [Related pubchem assays (depositor defined):AID2717, AID2721]; type: functional; settings: Homo sapiens
[20] = biological target: Protein Wnt-3a (Mus musculus, UniProt P27467); assay: Wnt3a-driven reporter signaling inhibition, dose response, selectivity assay for Gli-SUFU antagonist project, Wnt-LIGHT cells, luminescence (AID 651570); type: functional; settings: read-out: IC50_Mean;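 also: Wnt-LIGHT reporter cells stimulated with conditioned medium from Wnt3a-producing cells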
Protein Wnt-3a, sequence (P27467 whole entry): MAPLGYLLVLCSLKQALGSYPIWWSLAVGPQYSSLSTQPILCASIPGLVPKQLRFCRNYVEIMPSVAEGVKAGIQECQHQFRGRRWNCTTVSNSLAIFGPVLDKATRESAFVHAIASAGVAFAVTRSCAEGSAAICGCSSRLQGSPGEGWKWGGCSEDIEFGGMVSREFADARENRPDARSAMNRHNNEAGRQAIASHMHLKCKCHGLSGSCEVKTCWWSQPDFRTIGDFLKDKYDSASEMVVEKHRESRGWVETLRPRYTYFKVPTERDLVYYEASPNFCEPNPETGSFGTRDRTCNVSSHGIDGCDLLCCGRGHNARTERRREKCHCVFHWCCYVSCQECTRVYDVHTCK

[21] = tested on: INS1; assay: beta cell apoptosis inhibitors, cytokine rescue, dose response, luminescence, retest (AID 449756); type: functional, cell-based; settings: Rattus norvegicus;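 also: cell death triggered by IL-1 beta plus TNF-alpha plus IFN-gamma mixture; protective hits raise ATP signal compared with cytokine alone wells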
[22] = Shn3 3'UTR reporter inhibitors, dose response, cell-based, Clone20 osteoblasts, firefly luciferase, cherry-picked (AID 624132); type: functional;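 also: firefly luciferase luminescence from reporter carrying the Shn3 3'UTR in osteoblasts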
[23] = HepG2 cell cytotoxicity, dose response, cytotoxicity control for Shn3 inhibitor project, CellTiter-Glo, cherry-picked (AID 624134); type: functional, cell-based
[24] = biological target: Eukaryotic translation initiation factor 4E (Mus musculus, UniProt P63073); assay: eIF4E–eIF4G protein interaction inhibitors, dose response, biochemical, TR-FRET (AID 855); type: functional;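 also: potency for disrupting eIF4E binding to eIF4GI seen as loss of FRET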
Eukaryotic translation initiation factor 4E, sequence (P63073 whole entry): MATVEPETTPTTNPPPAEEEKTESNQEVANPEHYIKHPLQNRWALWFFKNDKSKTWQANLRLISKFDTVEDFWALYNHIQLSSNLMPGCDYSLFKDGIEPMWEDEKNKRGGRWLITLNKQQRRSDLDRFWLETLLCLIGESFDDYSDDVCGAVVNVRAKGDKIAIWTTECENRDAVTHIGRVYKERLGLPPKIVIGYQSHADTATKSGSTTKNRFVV

[25] = intracellular Trypanosoma cruzi inhibitors in host cells – cell-based, plate reader, cherry-pick samples, set 3, dose response (AID 651818); type: functional;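 also: compounds incubated with infected cells for about four days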
[26] = P. falciparum Dd2 growth inhibitors, dose response, SYBR Green, dry powder samples, set 9 (AID 1159568); type: functional, cell-based
[27] = Fluorescence-based cell-based high throughput dose response assay for inhibitors of the interaction of nucleotide-binding oligomerization domain containing 2 (NOD2) and the receptor-interacting serine-threonine kinase 2 (RIPK2).; type: functional; settings: Homo sapiens
[28] = miR-122 activators in hepatoma reporter cells, dose response, cell-based, Huh7 psiCHECK-miR122, Renilla luciferase, cherry-picked (AID 651956); type: functional;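 also: huh7 hepatoma cells stably carrying a psiCHECK-2 miR-122 sensor plasmid; renilla luciferase signal reporting endogenous miR-122 activity after 48 h compound exposure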

## CC(C)(C)c1ccc(-c2cc(-c3ccccc3O)[nH]n2)cc1
[1]
  IC50: 14.9 µM (inactive)

## Cc1ccc(-c2nnc(-c3ccc(NC(=O)Cc4cccs4)cc3)o2)cc1
[2]
  EC50: 5.97 µM (active)
[3]
  EC50: 4.87 µM (active)
[4]
  EC50: > 89.2 µM (inactive)

## Cc1cc(C)c(S(=O)(=O)N2CCN=C2c2ccccc2)cc1C
[5]
  AC50: 5.08 µM (active)
[6]
  AC50: 7.73 µM (active)
[7]
  AC50: 10.1 µM (active)
[8]
  AC50: 7.94 µM (active)

## COc1ccc(/N=c2\[nH]c(=O)c3cc([N+](=O)[O-])ccc3s2)cc1
[9]
  IC50: > 50 µM (not active)
[10]
  IC50: 15.5 µM (active)
[11]
  IC50: 13.4 µM (active)

## c1ccc(-c2nc(NCCCN3CCOCC3)c3ccccc3n2)cc1
[10]
  IC50: 37.2 µM (inactive)
[11]
  IC50: 17 µM (active)
[12]
  AC50: 32.4 µM (active)

## CCc1ccc2oc(-c3ccc(N)cc3)nc2c1
[13]
  IC50: 46.2 µM (active)
[14]
  AC50: > 52 µM (inactive)
[15]
  AC50: 7.42 µM (active)
[16]
  AC50: 4.19 µM (active)
[17]
  AC50: > 52 µM (inactive)

## C=C(C)COc1ccc(-c2[nH]nc(C)c2Oc2ccccc2OC)c(O)c1
[1]
  IC50: 8.72 µM (active)

## C=C(C)COc1ccc(-c2n[nH]c(C)c2Oc2ccccc2OC)c(O)c1
[18]
  IC50: > 69.5 µM (inactive)

## O=S(=O)(NCc1ccncc1)c1ccc(S(=O)(=O)NCC2CCCO2)cc1 (stereo not drawn)
[19]
  AC50: 0.973 µM (active)
[20]
  IC50: 7.09 µM (active)

## COc1ccc(NS(=O)(=O)c2cccc(NC(=O)c3ccc(S(=O)(=O)N4CCCCCC4)cc3)c2)cc1
[21]
  AC50: 3.12 µM (active)
[22]
  AC50: 0.829 µM (active)
[23]
  AC50: 38.8 µM (active)
[20]
  IC50: 1.76 µM (active)

## CN1CCN(c2nc(-c3ccncc3)nc3ccccc23)CC1
[12]
  AC50: 8.41 µM (active)

## CC[C@@]12C(=O)N(c3cccc(F)c3)C(=O)N1[C@H](c1ccc(Cl)cc1)[C@@H]1C(=O)N(C3CCCCC3)C(=O)[C@@H]12
[5]
  AC50: < 0.26 µM (active)
[6]
  AC50: < 0.26 µM (active)
[7]
  AC50: 0.416 µM (active)
[8]
  AC50: 0.329 µM (active)

## C[C@@]12C(=O)N(c3cccc(Cl)c3)C(=O)N1[C@H](c1ccc(Cl)cc1)[C@@H]1C(=O)N(C3CCCCC3)C(=O)[C@@H]12
[5]
  AC50: 1.21 µM (active)
[6]
  AC50: 1.31 µM (active)
[7]
  AC50: 2.26 µM (active)
[8]
  AC50: 11.6 µM (active)

## COc1ccc(-c2cnnc(N/N=C/c3ccc(-c4ccc([N+](=O)[O-])cc4)o3)n2)cc1
[24]
  IC50: 50 µM (inactive)
[10]
  IC50: > 80 µM (inactive)
[11]
  IC50: 6.62 µM (active)

## C[C@H](CO)N1C[C@H](C)[C@H](CN(C)C(=O)Nc2ccc(C(F)(F)F)cc2)Oc2c(NC(=O)c3ccc(-c4nccs4)cc3)cccc2C1=O
[25]
  AC50: 4.22 µM (active)
[26]
  AC50: 5 µM (active)

## CCOC(=O)[C@]12Cc3cc(OC)ccc3[C@H]1N(C1CCCCC1)C(=O)c1cc(OC)ccc12
[27]
  IC50: 4.81 µM (active)

## C[C@H](CO)N1C[C@H](C)[C@H](CN(C)C(=O)NC2CCCCC2)Oc2ncc(-c3cccc(C(F)(F)F)c3)cc2C1=O
[28]
  AC50: 37.8 µM (active)

## CN(C)c1ccc(-c2nc3cc(N)ccc3o2)cc1
[15]
  AC50: 2.28 µM (active)
[16]
  AC50: 3.58 µM (active)
[17]
  AC50: > 52 µM (inactive)

## N#Cc1cccc(-c2ccc([C@@H]3[C@@H]4CN(C(=O)c5ccccn5)C[C@H]3N4)cc2)c1
[14]
  AC50: 15 µM (active)
[15]
  AC50: 11.1 µM (active)
[16]
  AC50: 13.2 µM (active)
[17]
  AC50: > 52 µM (inactive)

## O=C(N/N=C/c1cn(-c2cccs2)nc1-c1ccccc1)c1ccccc1Cl
[1]
  IC50: > 69.5 µM (inactive)
[18]
  IC50: > 69.5 µM (inactive)

## CC(C)[C@H]1COCn2nncc2CCCC(=O)N1
[26]
  AC50: > 39 µM (inactive)
